According to patent publication US6066628A, “Non-iron metalloporphyrins and methods of use” (Emory University, priority 1998, dated 2000):
In brackets after ≈: the same amount, converted by molar mass. Read-outs that look alike come from different tables or passages of the source.

Columns and labels:
S. aureus [1] = assay type: cell-based, Staphylococcus aureus; details: for MIC: Staphylococcus aureus; for Minimal inhibitory concentration (MIC): methicillin-resistant S. aureus IR219, Nutrient broth (Table 2); for antibacterial activity: S. aureus
K. oxytoca = assay: Disc diffusion sensitivity test; assay type: cell-based, Klebsiella oxytoca; details: K. oxytoca; disc ~50 μg MP
N. meningitidis = assay: Disc diffusion sensitivity test; assay type: cell-based; details: disc ~50 μg MP
S. aureus [2] = assay: Disc diffusion sensitivity test; assay type: cell-based, Staphylococcus aureus; details: for diameter (mm) of the inhibition zone: S. aureus, disc ~50 μg MP
E. faecalis = assay: Disc diffusion sensitivity test; assay type: cell-based, Enterococcus faecalis; details: disc ~50 μg MP; note: key: -: resistant; N: not determined
F. menigosepticum = assay: Disc diffusion sensitivity test; assay type: cell-based, Flavobacterium meningosepticum; details: F. meningosepticum; disc ~50 μg MP
B. subtilis = assay: Disc diffusion sensitivity test; assay type: cell-based, Bacillus subtilis; details: for diameter (mm) of the inhibition zone: B. subtilis, disc ~50 μg MP
P. mirabills = assay: Disc diffusion sensitivity test; assay type: cell-based, Proteus mirabilis; details: P. mirabilis; disc ~50 μg MP
E. coli = assay: Disc diffusion sensitivity test; assay type: cell-based, Escherichia coli; details: E. coli; disc ~50 μg MP
Y. enterocolitica [3] = assay: Disc diffusion sensitivity test; assay type: cell-based; details: disc ~50 μg MP
C. freundii = assay: Disc diffusion sensitivity test; assay type: cell-based, Citrobacter freundii; details: C. freundii; disc ~50 μg MP
Ps. aeruginosa = assay: Disc diffusion sensitivity test; assay type: cell-based, Pseudomonas aeruginosa; details: disc ~50 μg MP; note: key: -: resistant; N: not determined
K. pneumoniae = assay: Disc diffusion sensitivity test; assay type: cell-based, Klebsiella pneumoniae; details: K. pneumoniae; disc ~50 μg MP
E. aerogenes = assay: Disc diffusion sensitivity test; assay type: cell-based, Enterobacter aerogenes; details: E. aerogenes; disc ~50 μg MP
S. aureus [4] = assay: Competition of heme/protoporphyrin IX with Ga-PPIX antibacterial activity; assay type: cell-based, Staphylococcus aureus
bacteria = assay type: cell-based; details: porphyrins without Ga ions; all tested bacteria
M. smegmatis [5] = assay type: cell-based, Mycobacterium smegmatis; details: M. smegmatis LR222; for Minimal inhibitory concentration (MIC): LB + Tween 80 (Table 2)
Y. enterocolitica [6] = assay: Competition of heme/protoporphyrin IX with Ga-PPIX antibacterial activity
M. smegmatis [7] = assay: as above
Y. enterocolitica [8] = assay: Minimal bactericidal concentration; assay type: cell-based; details: reduces plating efficiency more than 99.9%, minimal exposure to light
S. aureus [9] = assay: Minimal bactericidal concentration; assay type: cell-based, Staphylococcus aureus; details: reduces plating efficiency more than 99.9%, minimal exposure to light
Procedure: Minimal bactericidal concentrations (MBCs) were determined essentially the same way as MICs except that the amount of killing with a particular concentration of porphyrin derivative was determined by plating on solid microbiological media (LB plates or LB+Tween 80). Media were solidified by the incorporation of 1.5% agar (Difco Laboratories). Concentrations of porphyrins that produced 99.9% reduction in bacterial counts were considered bactericidal [Hindler et al. (1994) supra].
MBC were determined by plating bacterial cultures that have been incubate
in the presence of MPs at concentrations higher than MIC. MBC was defined
as a concentration of a particular MP which reduces the plating efficienc
more than 99.9%. Experiments were done with minimal exposure to light
(addition of porphyrins waa done in the presence of artifical light).

M. smegmatis [10] = assay: Minimal bactericidal concentration; assay type: cell-based, Mycobacterium smegmatis; details: reduces plating efficiency more than 99.9%, minimal exposure to light
M. bovis = assay type: cell-based, Mycobacterium bovis; details: disc ~50 μg MP
S. marcescens = assay: Disc diffusion sensitivity test; assay type: cell-based, Serratia marcescens; details: S. marcescens; disc ~50 μg MP
Y. enterocolitica [11] = assay: microbe, parasite or virus in culture; assay type: cell-based
M. smegmatis [12] = assay: Disc diffusion sensitivity test; assay type: cell-based, Mycobacterium smegmatis; details: disc ~50 μg MP
S. crevisieae = assay: Disc diffusion sensitivity test; assay type: cell-based, Saccharomyces cerevisiae; details: S. cerevisiae; disc ~50 μg MP
[13] = +1 μg/ml Ga-PPIX, competitor 1 μg/ml
[14] = +1 μg/ml Ga-PPIX, competitor 10 μg/ml
[15] = +1 μg/ml Ga-PPIX, competitor 20 μg/ml
[16] = +1 μg/ml Ga-PPIX, competitor 100 μg/ml
[17] = -1 μg/ml Ga-PPIX (without Ga-PPIX), 1 μg/ml
[18] = -1 μg/ml Ga-PPIX (without Ga-PPIX), 10 μg/ml
[19] = -1 μg/ml Ga-PPIX (without Ga-PPIX), 20 μg/ml
[20] = -1 μg/ml Ga-PPIX (without Ga-PPIX), 100 μg/ml

C=CC1=C(C)C2=Cc3c(C=C)c(C)c4[n]3[Mg][n]3c(c(C)c(CCC(=O)O)c3=CC3=NC(=C4)C(C)=C3CCC(=O)O)=CC1=N2 [Mg-PPIX]
MIC (S. aureus [1]; read-out: Minimal inhibitory concentration (MIC)): > 10 µg/mL | diameter (mm) of the inhibition zone (K. oxytoca): - | diameter (mm) of the inhibition zone (N. meningitidis): - | zone of inhibition at 50 µg/disc (S. aureus [2]; Staphylococcus aureus, read-out: diameter (mm) of the inhibition zone): 15 mm | diameter (mm) of the inhibition zone (E. faecalis): - | diameter (mm) of the inhibition zone (F. menigosepticum): - | zone of inhibition at 50 µg/disc (B. subtilis; Bacillus subtilis, read-out: diameter (mm) of the inhibition zone): 15 mm | diameter (mm) of the inhibition zone (P. mirabills): - | diameter (mm) of the inhibition zone (E. coli): - | diameter (mm) of the inhibition zone (Y. enterocolitica [3]): - | diameter (mm) of the inhibition zone (C. freundii): - | diameter (mm) of the inhibition zone (Ps. aeruginosa): - | diameter (mm) of the inhibition zone (K. pneumoniae): - | diameter (mm) of the inhibition zone (E. aerogenes): -

C=CC1=C(C)c2cc3[nH]c(cc4nc(cc5[nH]c(cc1n2)c(C)c5CCC(=O)O)C(CCC(=O)O)=C4C)c(C)c3C=C [PPIX, protoporphyrin IX]
MIC (S. aureus [1]; S. aureus IR2419, dark (Table 10), read-out: MIC): 50 µg/mL (≈ 88.9 µM) | growth (S. aureus [4]; [13]): - | growth (S. aureus [4]; [14]): - | growth (S. aureus [4]; [15]): - | growth (S. aureus [4]; [16]): + | growth (S. aureus [4]; [17]): + | growth (S. aureus [4]; [18]): + | growth (S. aureus [4]; [19]): + | growth (S. aureus [4]; [20]): + | antagonism of Ga-PPIX antibacterial activity (S. aureus [4]; heme 10- to 100-fold molar excess, protoporphyrin IX 100-fold excess): some antagonizing effect | MICs (bacteria): very large MICs | MIC (M. smegmatis [5]; Mycolicibacterium smegmatis, dark (Table 10), read-out: MIC): > 40 µg/mL | growth (Y. enterocolitica [6]; [13]): - | growth (Y. enterocolitica [6]; [14]): - | growth (Y. enterocolitica [6]; [15]): - | growth (Y. enterocolitica [6]; [16]): - | growth (Y. enterocolitica [6]; [17]): + | growth (Y. enterocolitica [6]; [18]): + | growth (Y. enterocolitica [6]; [19]): + | growth (Y. enterocolitica [6]; [20]): - | antagonism of Ga-PPIX antibacterial activity (Y. enterocolitica [6]; Y. enterocolitica fur mutant): not able to antagonize | growth (M. smegmatis [7]; [13]): - | growth (M. smegmatis [7]; [15]): + | growth (M. smegmatis [7]; [16]): + | growth (M. smegmatis [7]; [17]): + | growth (M. smegmatis [7]; [18]): + | growth (M. smegmatis [7]; [19]): + | growth (M. smegmatis [7]; [20]): + | antagonism of Ga-PPIX antibacterial activity (M. smegmatis [7]; heme 10- to 100-fold molar excess, protoporphyrin IX 20- and 100-fold excess): antagonized | MBC (Y. enterocolitica [8]; Yersinia enterocolitica): > 40 µg/mL | MBC (S. aureus [9]; Staphylococcus aureus): > 40 µg/mL | MBC (M. smegmatis [10]; Mycolicibacterium smegmatis): > 20 µg/mL

C=CC1=C(C)c2cc3[n-]c(cc4nc(cc5[n-]c(cc1n2)c(C)c5CCC(=O)O)C(CCC(=O)O)=C4C)c(C)c3C=C.[Pd+2] [Pd-PPIX]
Minimal inhibitory concentration (MIC) (S. aureus [1]): 50 µg/mL | diameter (mm) of the inhibition zone (K. oxytoca): - | diameter (mm) of the inhibition zone (N. meningitidis): - | diameter (mm) of the inhibition zone (S. aureus [2]): - | diameter (mm) of the inhibition zone (E. faecalis): - | diameter (mm) of the inhibition zone (M. bovis): - | Minimal inhibitory concentration (MIC) (M. smegmatis [5]): 20 µg/mL | diameter (mm) of the inhibition zone (F. menigosepticum): - | diameter (mm) of the inhibition zone (P. mirabills): - | diameter (mm) of the inhibition zone (E. coli): - | diameter (mm) of the inhibition zone (S. marcescens): - | diameter (mm) of the inhibition zone (C. freundii): - | diameter (mm) of the inhibition zone (Ps. aeruginosa): - | diameter (mm) of the inhibition zone (K. pneumoniae): - | diameter (mm) of the inhibition zone (E. aerogenes): - | Minimal inhibitory concentration (MIC) (Y. enterocolitica [11]): > 40

C=CC1=C(C)c2cc3[n-]c(cc4nc(cc5[n-]c(cc1n2)c(C)c5CCC(=O)O)C(CCC(=O)O)=C4C)c(C)c3C=C.[Ru+2] [Ru-PPIX]
antibacterial activity (S. aureus [1]): some activity | Minimal inhibitory concentration (MIC) (S. aureus [1]): 5 µg/mL | diameter (mm) of the inhibition zone (M. smegmatis [12]): - | diameter (mm) of the inhibition zone (N. meningitidis): 11 mm | diameter (mm) of the inhibition zone (S. aureus [2]): 12 mm | diameter (mm) of the inhibition zone (E. faecalis): - | diameter (mm) of the inhibition zone (M. bovis): - | Minimal inhibitory concentration (MIC) (M. smegmatis [5]): 20 µg/mL | diameter (mm) of the inhibition zone (F. menigosepticum): - | diameter (mm) of the inhibition zone (B. subtilis): - | diameter (mm) of the inhibition zone (Y. enterocolitica [3]): - | diameter (mm) of the inhibition zone (S. marcescens): - | diameter (mm) of the inhibition zone (S. crevisieae): - | diameter (mm) of the inhibition zone (Ps. aeruginosa): - | Minimal bactericidal concentration (MBC) (Y. enterocolitica [8]): > 40 | Minimal inhibitory concentration (MIC) (Y. enterocolitica [11]): > 40 | Minimal bactericidal concentration (MBC) (S. aureus [9]): 10 | Minimal bactericidal concentration (MBC) (M. smegmatis [10]): > 20

C=CC1=C(C)c2cc3[n-]c(cc4nc(cc5[n-]c(cc1n2)c(C)c5CCC(=O)O)C(CCC(=O)O)=C4C)c(C)c3C=C.[Ti+2] [Ti-PPIX]
Minimal inhibitory concentration (MIC) (S. aureus [1]): 40 µg/mL | diameter (mm) of the inhibition zone (K. oxytoca): - | diameter (mm) of the inhibition zone (N. meningitidis): - | diameter (mm) of the inhibition zone (S. aureus [2]): - | diameter (mm) of the inhibition zone (E. faecalis): - | Minimal inhibitory concentration (MIC) (M. smegmatis [5]): > 40 µg/mL | diameter (mm) of the inhibition zone (F. menigosepticum): - | diameter (mm) of the inhibition zone (B. subtilis): 12 mm | diameter (mm) of the inhibition zone (P. mirabills): - | diameter (mm) of the inhibition zone (E. coli): - | diameter (mm) of the inhibition zone (Y. enterocolitica [3]): - | diameter (mm) of the inhibition zone (C. freundii): - | diameter (mm) of the inhibition zone (Ps. aeruginosa): - | diameter (mm) of the inhibition zone (K. pneumoniae): - | diameter (mm) of the inhibition zone (E. aerogenes): - | Minimal inhibitory concentration (MIC) (Y. enterocolitica [11]): > 40

C=CC1=C(C)c2cc3[n-]c(cc4nc(cc5[n-]c(cc1n2)c(C)c5C=C)C(C)=C4CCC(=O)O)c(CCC(=O)O)c3C.[Zn+2] [Zn-PPIX]
antibacterial activity (S. aureus [1]): some activity | Minimal inhibitory concentration (MIC) (S. aureus [1]): 3.2 µg/mL | diameter (mm) of the inhibition zone (M. smegmatis [12]): - | diameter (mm) of the inhibition zone (N. meningitidis): 10 mm | diameter (mm) of the inhibition zone (S. aureus [2]): 12 mm | diameter (mm) of the inhibition zone (E. faecalis): - | diameter (mm) of the inhibition zone (M. bovis): - | Minimal inhibitory concentration (MIC) (M. smegmatis [5]): 20 µg/mL | diameter (mm) of the inhibition zone (B. subtilis): - | diameter (mm) of the inhibition zone (Y. enterocolitica [3]): - | diameter (mm) of the inhibition zone (S. marcescens): - | diameter (mm) of the inhibition zone (S. crevisieae): - | diameter (mm) of the inhibition zone (Ps. aeruginosa): - | Minimal inhibitory concentration (MIC) (Y. enterocolitica [11]): > 40
